What was measured:
[1] = Lipophilicity, PBS/n-octanol; format: physicochemical; settings: radiolabeled ligand
Experimental: Tubes were vortexed vigorously for 1 min and centrifuged for 5 min at 201×g for phase separation. The concentration of radioactivity in a defined volume of each layer was measured in a well-type gamma-counter.

[2] = molecular target: T1, PSMA-expressing LS174T cells (LS174T-PSMA) (Homo sapiens, UniProt Q04609); assay: Binding and internalization assay with 111In-labeled ligands; format: cell-based; settings: 2 h 37 °C
T1 construct: expressed in transfected cells; host or cells: LS174T colon carcinoma cells (human), stably transfected with pcDNA3.1-hPSMA
Experimental: Cell lines were purchased from the American Type Culture Collection. LS174T colon carcinoma cells were stably transfected with human PSMA using the plasmid pcDNA3.1-hPSMA and cultured in RPMI 1640 medium supplemented with 2 mM glutamine, 10% FCS, and 0.3 mg/ml G418 at 37 °C in a humidified atmosphere with 5% CO2 [5].
Binding and internalization characteristics of all ligands were compared using LS174T-PSMA and wildtype LS174T cells. Cells were cultured to confluency in 6-wells plates followed by incubation at 37 °C for 2 h in 1 ml binding buffer (RPMI/0.5% BSA) with 50,000 counts per minute (cpm) of ^111In-labeled ligand (0.1-0.25 pmol/well). Nonspecific binding was determined by coincubation with 2-(phosphonomethyl)pentane-1,5-dioic acid (2-PMPA, 21.57 µM). PSMA-specific binding was defined as nonspecific binding subtracted from total binding. To retrieve the membrane-bound fraction, cells were washed with PBS twice and incubated with acid buffer (0.1 M acetic acid, 154 mM NaCl, pH 2.6) for 10 minutes at 0 °C. After incubation, the membrane bound fraction (in acid buffer) was collected, cells were washed, lysed with 0.1 M NaOH and cell lysis (intercellular activity) was collected. Membrane-bound activity and intercellular activity fractions were measured in a gamma-counter (2480 WIZARD^2 Automatic Gamma Counter, PerkinElmer), [25]. Human serum was used to determine the in vitro serum stability of the multimodal ligands (0.8 µg/ml serum, 5 MBq/μg labeling). After incubation for 2 h at 37°C, serum proteins were precipitated by adding a 1:1 (v/v) volume of acetonitrile followed by 5 min of centrifugation at 3220×g. Stability was evaluated by RP-HPLC analysis after 2 h of incubation at 37 °C. […] Experimental details are described in the supplementary materials and methods.

[3] = tested on: LS174T-PSMA and LS174T xenografts; assay: Biodistribution of 111In-labeled multimodal ligands; format: in vivo, BALB/c nude mice; settings: 0.3 nmol, 2 h p.i.
Experimental: Animal experiments were performed in 8-10 weeks old male BALB/c nude mice (Janvier). Animals were housed in individually ventilated cages (Blue line IVC, 4-5 mice per cage) under nonsterile standard conditions with cage enrichment present and free access to chlorophyll-free animal chow (Sniff GmbH) and water. Mice were subcutaneously inoculated with 3.0 x 10^6 LS174T-PSMA cells in the left flank and 1.5 × 10^6 LS174T cells in the right flank, diluted in 200 μL of complete RPMI 1640 medium. Eleven days after tumor cell inoculation when xenografts were approximately 0.1 cm^3, tracers were injected intravenously via the tail vein. The researchers were not blinded for the experimental groups and tumor-bearing mice were block-randomized into groups based on tumor size. All experiments were approved by the institutional Animal Welfare Committee of the Radboud university medical center and were conducted in accordance to the guidelines of the Revised Dutch Act on Animal Experimentation.
Mice were injected intravenously with 10 MBq ^111In-labeled PSMA ligands (0.3 nmol, molar activity 33.3 MBq/nmol) in PBS/0.5% BSA. Two hours post injection, mice were euthanized by CO2/O2-asphyxation and images were acquired with the IVIS fluorescence imaging system (Xenogen VivoVision IVIS Lumina II, Caliper Life Sciences), using an acquisition time of 10 s. Subsequently, µSPECT/CT images were acquired (U-SPECT II, MILabs) with a 1.0 mm diameter pinhole mouse collimator tube [26]. Mice were scanned for 30 min followed by a CT scan (spatial resolution 160 μm, 65 kV, 615 μA) for anatomical reference. µSPECT/CT scans were reconstructed with MILabs reconstruction software, using an ordered-subset expectation maximization algorithm, energy windows 154 - 188 keV and 220-270 keV, 3 iterations, 16 subsets, voxel size of 0.4 mm. SPECT/CT scans were analyzed and maximum intensity projections (MIPs) were created using the Inveon Research Workplace software version 4.1 (Siemens Preclinical Solutions). NIRF images were analyzed using Living Image software version 4.2 (Caliper Life Sciences). Tissues of interest were dissected, weighed and measured for radioactivity in a gamma-counter as described above. In the fluorescence-guided surgery feasibility study, pre-operative imaging was performed to visualize tumor tissue. After white light resection, NIRF imaging was repeated to assess if any remaining tumor was present.

T1 sequence (Q04609 whole entry): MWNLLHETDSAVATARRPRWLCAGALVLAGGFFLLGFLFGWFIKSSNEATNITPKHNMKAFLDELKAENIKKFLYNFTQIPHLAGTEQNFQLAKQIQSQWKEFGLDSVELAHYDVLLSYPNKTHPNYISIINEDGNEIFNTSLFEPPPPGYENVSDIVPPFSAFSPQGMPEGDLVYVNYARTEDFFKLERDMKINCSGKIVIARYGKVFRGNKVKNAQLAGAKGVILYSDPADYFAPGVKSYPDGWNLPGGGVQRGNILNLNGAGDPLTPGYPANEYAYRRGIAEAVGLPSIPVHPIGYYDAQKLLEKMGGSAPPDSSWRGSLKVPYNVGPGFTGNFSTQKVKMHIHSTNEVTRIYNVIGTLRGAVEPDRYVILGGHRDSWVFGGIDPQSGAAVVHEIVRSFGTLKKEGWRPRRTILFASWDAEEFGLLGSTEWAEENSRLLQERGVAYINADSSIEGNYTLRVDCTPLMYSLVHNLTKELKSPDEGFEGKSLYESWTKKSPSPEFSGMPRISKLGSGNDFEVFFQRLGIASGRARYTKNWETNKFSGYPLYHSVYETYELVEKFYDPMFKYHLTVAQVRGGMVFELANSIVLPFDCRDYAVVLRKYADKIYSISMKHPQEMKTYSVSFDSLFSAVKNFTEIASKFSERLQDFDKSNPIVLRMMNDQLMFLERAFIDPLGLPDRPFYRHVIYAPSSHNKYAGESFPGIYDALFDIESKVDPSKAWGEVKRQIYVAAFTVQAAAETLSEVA

| LogD [1] | Internalized fraction [2] | Membrane bound fraction [2] | Adrenals [3] | Blood [3] | Bone [3] | Bone marrow [3] | Duodenum [3] | Heart [3] | Kidney [3] | Liver [3] | Lung [3] | Muscle [3] | Pancreas [3] | Prostate [3] | Salivary glands [3] | Spleen [3] | Stomach [3] | Tumor- LS174T [3] | Tumor/Blood ratio [3] | Compound | further results |
| --- | --- | --- | --- | --- | --- | --- | --- | --- | --- | --- | --- | --- | --- | --- | --- | --- | --- | --- | --- | --- | --- |
| -2.4 ± 0.10 | 3.6 ± 0.22 | 0.5 ± 0.20 | 2.5 %ID/g | 0.3 %ID/g | 1.2 %ID/g | 0.4 %ID/g | 0.6 %ID/g | 0.5 %ID/g | 112.8 %ID/g | 1 ± 0.2 %ID/g | 0.7 %ID/g | 0.3 %ID/g | 0.4 %ID/g | 1.4 %ID/g | 0.6 %ID/g | 3.1 ± 1 %ID/g | 0.5 %ID/g | 0.5 %ID/g | 56 | C[Si](C)(CCC[N+](CCCS(=O)(=O)O)(CCCS(=O)(=O)O)CCCS(=O)(=O)O)O[Si-2]123(O[Si](C)(C)CCC[N+](CCCS(=O)(=O)O)(CCCS(=O)(=O)O)CCCS(=O)(=O)O)n4c5c6ccccc6c4N=C4c6cccc(OCCCOC(=O)NCCCCCC(=O)NCCCC[C@H](NC(=O)CCC(C(=O)O)N7CCN(CC(=O)O)CCN(CC(=O)O)CCN(CC(=O)O)CC7)C(=O)N[C@@H](CCC(=O)O)C(=O)N[C@@H](CCC(=O)O)C(=O)N[C@@H](CCC(=O)O)C(=O)NCCCCCC(=O)NCCCC[C@H](NC(=O)N[C@@H](CCC(=O)O)C(=O)O)C(=O)O)c6C(=[N+]41)N=c1c4ccccc4c(n12)=NC1=[N+]3C(=N5)c2ccccc21.[Na+].[Na+].[Na+].[Na+] (stereo partly drawn) [N143] | Tumor/Kidney ratio [3]: 0.2; Tumor/Liver ratio [3]: 15.2; Tumor/Muscle ratio [3]: 72.3; Tumor/Negative tumor ratio [3]: 36.7; Tumor/Prostate ratio [3]: 32.9; Tumor/Salivary gland ratio [3]: 28.8; Tumor/Spleen ratio [3]: 5.2 |
| -2.4 ± 0.03 | 2.0 ± 0.39 | 0.8 ± 0.06 | 1.2 %ID/g | 0.7 %ID/g | 0.4 %ID/g | 0.2 %ID/g | 0.3 %ID/g | 0.3 %ID/g | 31.9 %ID/g | 0.8 %ID/g | 0.4 %ID/g | 0.2 %ID/g | 0.2 %ID/g | 0.9 %ID/g | 0.4 %ID/g | 1.1 %ID/g | 0.3 %ID/g | 0.4 %ID/g | 14.9 | C[Si](C)(CCC[N+](CCCS(=O)(=O)O)(CCCS(=O)(=O)O)CCCS(=O)(=O)O)O[Si-2]123(O[Si](C)(C)CCC[N+](CCCS(=O)(=O)O)(CCCS(=O)(=O)O)CCCS(=O)(=O)O)n4c5c6ccccc6c4N=C4c6cccc(OCCCOC(=O)NCCCCCC(=O)NCCCC[C@H](NC(=O)CCC(C(=O)O)N7CCN(CC(=O)O)CCN(CC(=O)O)CCN(CC(=O)O)CC7)C(=O)N[C@H](Cc7ccccc7)C(=O)NCCCCCC(=O)NCCCC[C@H](NC(=O)N[C@@H](CCC(=O)O)C(=O)O)C(=O)O)c6C(=[N+]41)N=c1c4ccccc4c(n12)=NC1=[N+]3C(=N5)c2ccccc21.[Na+].[Na+].[Na+].[Na+] (stereo partly drawn) [N046] | Tumor+ LS174T-PSMA [3]: 4.3 %ID/g; Tumor/Kidney ratio [3]: 0.2; Tumor/Liver ratio [3]: 6.1; Tumor/Muscle ratio [3]: 39.3; Tumor/Negative tumor ratio [3]: 10.8; Tumor/Prostate ratio [3]: 10.7; Tumor/Salivary gland ratio [3]: 12.5; Tumor/Spleen ratio [3]: 4.4 ± 1 |
| -2.3 ± 0.11 | 1.1 ± 0.05 | 0.3 ± 0.04 | 0.7 %ID/g | 0.2 %ID/g | 0.2 %ID/g | 0.4 %ID/g | 0.2 %ID/g | 0.3 %ID/g | 51.4 %ID/g | 0.6 %ID/g | 0.3 %ID/g | 0.1 %ID/g | 0.2 %ID/g | 0.3 %ID/g | 0.3 %ID/g | 0.6 %ID/g | 0.2 %ID/g | 0.4 %ID/g | 62.6 | C[Si](C)(CCC[N+](CCCS(=O)(=O)O)(CCCS(=O)(=O)O)CCCS(=O)(=O)O)O[Si-2]123(O[Si](C)(C)CCC[N+](CCCS(=O)(=O)O)(CCCS(=O)(=O)O)CCCS(=O)(=O)O)n4c5c6ccccc6c4N=C4c6cccc(OCCCOC(=O)NCCCCCC(=O)NCCCC[C@H](NC(=O)CCOCCOCCOCCOCCNC(=O)CN7CCN(CC(=O)O)CCN(CC(=O)O)CCN(CC(=O)O)CC7)C(=O)N[C@H](Cc7ccccc7)C(=O)N[C@@H](CCC(=O)O)C(=O)N[C@@H](CCC(=O)O)C(=O)NCCCCCC(=O)NCCCC[C@H](NC(=O)N[C@@H](CCC(=O)O)C(=O)O)C(=O)O)c6C(=[N+]41)N=c1c4ccccc4c(n12)=NC1=[N+]3C(=N5)c2ccccc21.[Na+].[Na+].[Na+].[Na+] [NJ27] | Tumor+ LS174T-PSMA [3]: 9.1 ± 2 %ID/g; Tumor/Kidney ratio [3]: 0.2; Tumor/Liver ratio [3]: 15.9; Tumor/Muscle ratio [3]: 106.4; Tumor/Negative tumor ratio [3]: 27.1; Tumor/Prostate ratio [3]: 32.7; Tumor/Salivary gland ratio [3]: 33.2; Tumor/Spleen ratio [3]: 17.3 |

| Compound | LogD [1] | Internalized fraction [2] | Membrane bound fraction [2] | Adrenals [3] | Blood [3] | Bone [3] | Bone marrow [3] | Duodenum [3] | Heart [3] | Kidney [3] | Liver [3] | Lung [3] | Muscle [3] | Pancreas [3] | Prostate [3] | Salivary glands [3] | Spleen [3] | Stomach [3] | Tumor- LS174T [3] | Tumor/Blood ratio [3] | further results |
| --- | --- | --- | --- | --- | --- | --- | --- | --- | --- | --- | --- | --- | --- | --- | --- | --- | --- | --- | --- | --- | --- |
| C[Si](C)(CCC[N+](CCCS(=O)(=O)O)(CCCS(=O)(=O)O)CCCS(=O)(=O)O)O[Si-2]123(O[Si](C)(C)CCC[N+](CCCS(=O)(=O)O)(CCCS(=O)(=O)O)CCCS(=O)(=O)O)n4c5c6ccccc6c4N=C4c6cccc(OCCCOC(=O)NCCCCCC(=O)NCCCC[C@H](NC(=O)[C@H](CCC(=O)O)NC(=O)CN7CCN(CC(=O)O)CCN(CC(=O)O)CCN(CC(=O)O)CC7)C(=O)N[C@H](Cc7ccccc7)C(=O)N[C@@H](CCC(=O)O)C(=O)N[C@@H](CCC(=O)O)C(=O)NCCCCCC(=O)NCCCC[C@H](NC(=O)N[C@@H](CCC(=O)O)C(=O)O)C(=O)O)c6C(=[N+]41)N=c1c4ccccc4c(n12)=NC1=[N+]3C(=N5)c2ccccc21.[Na+].[Na+].[Na+].[Na+] [N122] | -2.8 ± 0.06 | 1.4 ± 0.20 | 0.6 ± 0.01 | 1.7 %ID/g | 0.6 %ID/g | 0.7 %ID/g | 0.4 %ID/g | 0.4 %ID/g | 0.5 %ID/g | 72.5 %ID/g | 1 ± 0.2 %ID/g | 1 ± 0.3 %ID/g | 0.2 %ID/g | 0.3 %ID/g | 0.4 %ID/g | 0.5 %ID/g | 1.6 %ID/g | 0.4 %ID/g | 0.5 %ID/g | 13.9 | Tumor+ LS174T-PSMA [3]: 7.6 %ID/g; Tumor/Kidney ratio [3]: 0.2; Tumor/Liver ratio [3]: 8.1; Tumor/Muscle ratio [3]: 48.4; Tumor/Negative tumor ratio [3]: 17.8; Tumor/Prostate ratio [3]: 21.5; Tumor/Salivary gland ratio [3]: 18.6; Tumor/Spleen ratio [3]: 5.2 |
